Experiments:
VR = conditions: typically; no more than moderate affinity; read-out: Ki value (binds to VR); cited from earlier work
human capsaicin receptor [1] = biological target: T1, human capsaicin receptor (Homo sapiens, UniProt Q8NER1); assay: Calcium mobilization assay, determination of antagonist activity (Example 6); format: cell-based; conditions: cells expressing human capsaicin receptor; capsaicin at its EC50; read-out: IC50 determined as described in Example 6
T1 construct: expressed in transfected cells; host or cells: HEK293 cells stably transfected with pBK-CMV construct
Excerpt: A cDNA encoding full length human capsaicin receptor (SEQ ID NO:1, 2 or 3 of U.S. Pat. No. 6,482,611) is subcloned in the plasmid pBK-CMV (Stratagene, La Jolla, Calif.) for recombinant expression in mammalian cells.
Human embryonic kidney (HEK293) cells are transfected with the pBK-CMV expression construct encoding the full length human capsaicin receptor using standard methods. […] Independent clones are isolated from this pool by limiting dilution to obtain clonal stable cell lines for use in subsequent experiments.
This Example illustrates representative calcium mobilization assays for use in evaluating test compounds for agonist and antagonist activity.
(§1) Cells transfected with expression plasmids (as described in Example 4) and thereby expressing human capsaicin receptor are seeded and grown to 70-90% confluency in FALCON black-walled, clear-bottomed 96-well plates (#3904, BECTON-DICKINSON, Franklin Lakes, N.J.). The culture medium is emptied from the 96 well plates and FLUO-3 AM calcium sensitive dye (Molecular Probes, Eugene, Oreg.) is added to each well (dye solution: 1 mg FLUO-3 AM, 440 μL DMSO and 440 μl 20% pluronic acid in DMSO, diluted 1:250 in Krebs-Ringer HEPES (KRH) buffer (25 mM HEPES, 5 mM KCl, 0.96 mM NaH2PO4, 1 mM MgSO4, 2 mM CaCl2, 5 mM glucose, 1 mM probenecid, pH 7.4), 50 μl diluted solution per well). Plates are covered with aluminum foil and incubated at 37° C. for 1-2 hours in an environment containing 5% CO2. After the incubation, the dye is emptied from the plates, and the cells are washed once with KRH buffer, and resuspended in KRH buffer.
To measure the ability of a test compound to agonize or antagonize a calcium mobilization response in cells expressing capsaicin receptors to capsaicin or other vanilloid agonist, the EC50 of the agonist capsaicin is first determined. An additional 20 μl of KRH buffer and 1 μl DMSO is added to each well of cells, prepared as described above. 100 μl capsaicin in KRH buffer is automatically transferred by the FLIPR instrument to each well. […] Data obtained between 30 and 60 seconds after agonist application are used to generate an 8-point concentration response curve, with final capsaicin concentrations of 1 nM to 3 μM.
Test compounds are dissolved in DMSO, diluted in 20 μl KRH buffer so that the final concentration of test compounds in the assay well is between 1 μM and 5 μM, and added to cells prepared as described above. The 96 well plates containing prepared cells and test compounds are incubated in the dark, at room temperature for 0.5 to 6 hours. It is important that the incubation not continue beyond 6 hours. Just prior to determining the fluorescence response, 100 μl capsaicin in KRH buffer at twice the EC50 concentration determined as described above is automatically added by the FLIPR instrument to each well of the 96 well plate for a final sample volume of 200 μl and a final capsaicin concentration equal to the EC50. The final concentration of test compounds in the assay wells is between 1 μM and 5 μM.

human capsaicin receptor [2] = biological target: T1, human capsaicin receptor; assay: Calcium mobilization assay, agonist response (Example 6); format: cell-based; conditions: positive control in the agonist assay; read-out: approximate EC90 concentration
Method: as §1
To measure the ability of a test compound to agonize or antagonize a calcium mobilization response in cells expressing capsaicin receptors to capsaicin or other vanilloid agonist, the EC50 of the agonist capsaicin is first determined. An additional 20 μl of KRH buffer and 1 μl DMSO is added to each well of cells, prepared as described above. 100 μl capsaicin in KRH buffer is automatically transferred by the FLIPR instrument to each well. […]

T1 sequence (Q8NER1 whole entry): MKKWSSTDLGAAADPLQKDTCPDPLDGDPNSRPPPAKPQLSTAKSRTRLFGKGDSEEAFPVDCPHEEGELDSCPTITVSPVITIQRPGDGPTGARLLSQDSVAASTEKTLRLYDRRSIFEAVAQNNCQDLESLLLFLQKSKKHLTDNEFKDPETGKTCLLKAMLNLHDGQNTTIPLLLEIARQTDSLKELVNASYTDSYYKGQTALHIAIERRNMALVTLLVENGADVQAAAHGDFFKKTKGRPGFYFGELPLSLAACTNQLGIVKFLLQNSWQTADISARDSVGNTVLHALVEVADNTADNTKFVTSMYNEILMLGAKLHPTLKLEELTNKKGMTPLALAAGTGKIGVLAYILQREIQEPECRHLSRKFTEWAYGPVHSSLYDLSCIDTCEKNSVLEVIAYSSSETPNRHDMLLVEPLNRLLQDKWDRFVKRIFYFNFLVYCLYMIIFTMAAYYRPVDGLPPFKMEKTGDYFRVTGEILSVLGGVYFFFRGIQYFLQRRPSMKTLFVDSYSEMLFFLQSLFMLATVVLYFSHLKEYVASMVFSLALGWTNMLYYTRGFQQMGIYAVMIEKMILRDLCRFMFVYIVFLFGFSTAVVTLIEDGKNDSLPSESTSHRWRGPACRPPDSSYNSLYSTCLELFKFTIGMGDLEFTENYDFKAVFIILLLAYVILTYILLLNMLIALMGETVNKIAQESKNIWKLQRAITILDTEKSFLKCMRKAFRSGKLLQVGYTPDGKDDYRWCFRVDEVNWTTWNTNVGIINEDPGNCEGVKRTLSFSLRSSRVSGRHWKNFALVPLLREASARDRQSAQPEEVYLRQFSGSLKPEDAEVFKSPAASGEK

Row | IC50 (human capsaicin receptor [1]) | SMILES | also measured
1 |  | Cl.Cl.Cl.Cl.Cl.Cl.N.N.N.N.N.N.N.N.N.N.N.N.N.N.[O-2].[O-2].[Ru+3].[Ru+3].[Ru+4] [ruthenium red] | Ki (VR): ≥ 140000 nM
2 | < 1000 nM | CC1CCCN1c1nc(-c2ccc(F)cc2)cc(N2CCC(c3nccn3C)CC2)n1 (stereo not shown) [Compound 3] | 
3 |  | COc1cc(CNC(=O)CCCC/C=C/C(C)C)ccc1O [capsaicin] | EC90 (human capsaicin receptor [2]): ~100 nM
4 | < 1000 nM | CC1CCCN1c1nc(-c2ccc(F)cc2)cc(N2CCN(c3nccn3C)CC2)n1 (stereo not shown) [Compound 2, 4-(4-Fluoro-phenyl)-6-[4-(1-methyl-1H-imidazol-2-yl)-piperazin-1-yl]-2-(2-methyl-pyrrolidin-1-yl)-pyrimidine] | 
5 | < 1000 nM | CC1CCCN1c1nc(-c2ccc(F)c(Cl)c2)cc(N2CCN(c3nsnc3Cl)CC2)n1 (stereo not shown) [Compound 4] | 
6 | < 1000 nM | C[C@@H]1CCCN1c1nc(-c2ccc(F)c(Cl)c2)cc(N2CCN(c3nccn3C)CC2)n1 [Compound 5, 4-(3-Chloro-4-fluoro-phenyl)-6-[4-(1-methyl-1H-imidazol-2-yl)-piperazin-1-yl]-2-((R)-2-methyl-pyrrolidin-1-yl)-pyrimidine] | 
7 | < 1000 nM | CC1CCCN1c1nc(-c2ccc(F)cc2)cc(N2CCC(c3nnn[nH]3)CC2)n1 (stereo not shown) [Compound 1, 4-(4-Fluoro-phenyl)-2-(2-methyl-pyrrolidin-1-yl)-6-[4-(1H-tetrazol-5-yl)-piperidin-1-yl]pyrimidine] | 

From patent publication US20080124384A1, “Heteroaryl Substituted Piperazinyl-Pyridine Analogues” (priority 2005, published 2008)
